Consider 35 compounds from patent publication US10098878B2, “HIF-2α inhibitors for treating iron overload disorders” (The Board of Regents of the University of Texas System, priority 2014, dated 2018).

The target in the first assay is T1, HIF-2α HIS TAG-PASB Domain (Homo sapiens, UniProt Q99814).
T1 construct: 100 nM HIF-2α HIS TAG-PASB Domain
T1 sequence (Q99814 240-350 limits assumed): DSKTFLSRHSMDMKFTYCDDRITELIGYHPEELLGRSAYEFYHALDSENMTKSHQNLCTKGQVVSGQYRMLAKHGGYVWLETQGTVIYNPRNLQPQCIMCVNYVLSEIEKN
The experiment in a line: HIF-2α Scintillation Proximity Assay (SPA). The class given is binding. Particulars: 150 nM Compound 211 probe, 100 nM HIF-2α HIS TAG-PASB Domain; read-out: SPA IC50. How it is done: The total assay volume was about 100 μL in the following configuration: 2 μL compound in 100% DMSO, 88 μL buffer with protein and probe and 10 μL of SPA beads. […] The percent inhibition was determined and IC50 values were calculated using the Dotmatics system based on the following equation: % inhibition=[(high control−sample)/(high control−low control)]×100.
In general terms: In a scintillation proximity assay essentially only radioactivity close to the scintillant gives light.
A word on the IC50: it is the midpoint of a concentration-inhibition curve. Consider `CS(=O)(=O)c1ccc(Oc2cc(F)cc(C#N)c2)c2c1[C@H](O)CC2(F)F` [Compound 52, 3-[(1R)-3,3-difluoro-1-hydroxy-7-methylsulfonyl-indan-4-yl]oxy-5-fluoro-benzonitrile], for which the IC50 was determined as 6.5 µM.

Regarding `C[C@]1(F)Cc2c(Oc3cc(F)cc(C#N)c3)ccc(S(C)(=O)=O)c2[C@@H]1O` [Compound 62, 3-fluoro-5-(((1S,2S)-2-fluoro-1-hydroxy-2-methyl-7-(methylsulfonyl)-2,3-dihydro-1H-inden-4-yl)oxy)benzonitrile], the concentration for half-maximal inhibition (IC50) stood at 16.1 µM.

As for `CS(=O)(=O)c1ccc(Oc2cc(F)cc(C#N)c2)c2c1[C@H](O)C(F)(F)[C@H]2O` [Compound 75, 3-[(1S,3S)-2,2-difluoro-1,3-dihydroxy-7-methylsulfonyl-indan-4-yl]oxy-5-fluoro-benzonitrile], the IC50 came to 8.7 µM. Take `CS(=O)(=O)c1ccc(Oc2cncc(Br)c2)c2c1C(=O)C(F)(F)C2` [Compound 87, 4-((5-Bromopyridin-3-yl)oxy)-2,2-difluoro-7-(methylsulfonyl)-2,3-dihydro-1H-inden-1-one]: the IC50 was found to be 5.3 µM. Take `CS(=O)(=O)c1ccc(Oc2cncc(Br)c2)c2c1[C@H](O)[C@H](F)C2` [Compound 90, (1S,2R)-4-((5-Bromopyridin-3-yl)oxy)-2-fluoro-7-(methylsulfonyl)-2,3-dihydro-1H-inden-1-ol]: the IC50 is 1.28 µM.

On to `CS(=O)(=O)c1ccc(Oc2cncc(F)c2)c2c1[C@H](O)C(F)(F)[C@H]2F` [Compound 94, (1S,3S)-2,2,3-trifluoro-4-((5-fluoropyridin-3-yl)oxy)-7-(methylsulfonyl)-2,3-dihydro-1H-inden-1-ol], for which the IC50 was 2.1 µM.

With `CS(=O)(=O)c1ccc(Oc2cncc(Cl)c2)c2c1[C@H](O)C(F)(F)[C@H]2F` [Compound 96, (1S,3S)-4-((5-chloropyridin-3-yl)oxy)-2,2,3-trifluoro-7-(methylsulfonyl)-2,3-dihydro-1H-inden-1-ol], the IC50 is 2.3 µM. For `N#Cc1cc(F)cc(Oc2ccc(S(N)(=O)=O)c3c2[C@@H](O)C(F)(F)[C@H]3O)c1` [Compound 101, (1R,3S)-7-(3-cyano-5-fluoro-phenoxy)-2,2-difluoro-1,3-dihydroxy-indane-4-sulfonamide], the IC50 came to 3.7 µM.

Regarding `CS(=O)(=O)c1ccc(Oc2cncc(C#N)c2)c2c1[C@H](O)C(F)(F)[C@H]2F` [Compound 107, 5-(((1S,3S)-2,2,3-trifluoro-1-hydroxy-7-(methylsulfonyl)-2,3-dihydro-1H-inden-4-yl)oxy)nicotinonitrile], the IC50 was determined as 23.9 µM.

`N#Cc1cncc(Oc2ccc(S(=O)(=O)CF)c3c2[C@H](F)C(F)(F)[C@H]3O)c1` [Compound 109, 5-(((1S,3S)-2,2,3-trifluoro-7-((fluoromethyl)sulfonyl)-1-hydroxy-2,3-dihydro-1H-inden-4-yl)oxy)nicotinonitrile]: the IC50 worked out at 2.2 µM. Consider `O=S1(=O)CCc2c1ccc(Oc1cc(F)cc(Cl)c1)c2Br` [Compound 114, 4-Bromo-5-(3-chloro-5-fluorophenoxy)-2,3-dihydrobenzo[b]thiophene 1,1-dioxide], for which the IC50 came to 4.4 µM.

Turning to `N#Cc1c(Oc2cc(F)cc(Cl)c2)ccc2c1CCS2(=O)=O` [Compound 115, 5-(3-Chloro-5-fluorophenoxy)-2,3-dihydrobenzo[b]thiophene-4-carbonitrile 1,1-dioxide], the IC50 is 4.9 µM.

`O=C1c2c(ccc(Oc3cc(F)cc(Cl)c3)c2Br)S(=O)(=O)C1(F)F` [Compound 118, 4-Bromo-5-(3-chloro-5-fluorophenoxy)-2,2-difluorobenzo[b]thiophen-3(2H)-one 1,1-dioxide]: the IC50 was determined as 1.4 µM. On the same count and under the same terms, with `NC1c2c(ccc(Oc3cc(F)cc(F)c3)c2C(F)F)S(=O)(=O)C1F` (centres unmarked) [Compound 130, 3-amino-4-(difluoromethyl)-5-(3,5-difluorophenoxy)-2-fluoro-2,3-dihydrobenzo[b]thiophene 1,1-dioxide] the figure was 1.5 µM; with `N#Cc1cc(F)cc(Oc2ccc3c(c2C(F)F)C(=N)C(F)S3(=O)=O)c1` (centres unmarked) [Compound 137, 3-((4-(difluoromethyl)-2-fluoro-3-imino-1,1-dioxido-2,3-dihydrobenzo[b]thiophen-5-yl)oxy)-5-fluorobenzonitrile], 5.8 µM; with `COCCNC1c2c(ccc(Oc3cc(F)cc(C#N)c3)c2C(F)F)S(=O)(=O)C1(F)F` (centres unmarked) [Compound 146, 3-((4-(Difluoromethyl)-2,2-difluoro-3-((2-methoxyethyl)amino)-1,1-dioxido-2,3-dihydrobenzo[b]thiophen-5-yl)oxy)-5-fluorobenzonitrile], 2.89 µM. Take `N#Cc1cc(F)cc(Oc2ccc3c(c2C(F)F)[C@H](N)C(F)(F)S3(=O)=O)c1` [Compound 148, (S)-3-((3-Amino-4-(difluoromethyl)-2,2-difluoro-1,1-dioxido-2,3-dihydrobenzo[b]thiophen-5-yl)oxy)-5-fluorobenzonitrile]: the IC50 was 13.4 µM.

In the case of `Cc1cc(C#N)cc(Oc2ccc3c(c2C(F)F)C(=O)C(F)(F)S3(=O)=O)c1` [Compound 155, 3-((4-(Difluoromethyl)-2,2-difluoro-1,1-dioxido-3-oxo-2,3-dihydrobenzo[b]thiophen-5-yl)oxy)-5-methylbenzonitrile], the IC50 is 18.7 µM. Turning to `N#Cc1cc(F)cc(Oc2ccc3c(c2Br)C(=O)C(F)(F)S3(=O)=O)c1` [Compound 157, 3-((4-Bromo-2,2-difluoro-1,1-dioxido-3-oxo-2,3-dihydrobenzo[b]thiophen-5-yl)oxy)-5-fluorobenzonitrile], the half-inhibitory concentration (IC50) was 9.7 µM.

Take `N#CN=S1(=O)CC(O)c2c1ccc(Oc1cc(F)cc(F)c1)c2C(F)F` (centres unmarked) [Compound 159, N-(4-(difluoromethyl)-5-(3,5-difluorophenoxy)-3-hydroxy-1-oxido-2,3-dihydro-1λ^4-benzo[b]thiophen-1-ylidene)cyanamide]: the IC50 is 17.4 µM. Regarding `N=S1(=O)CC(O)c2c1ccc(Oc1cc(F)cc(F)c1)c2C(F)F` (centres unmarked) [Compound 160, 4-(Difluoromethyl)-5-(3,5-difluorophenoxy)-3-hydroxy-1-imino-2,3-dihydro-1H-1λ^4-benzo[b]thiophene 1-oxide], the IC50 is 14.2 µM.

With `O=C1c2c(ccc(Oc3cc(F)cc(Cl)c3)c2Br)S(=O)(=O)C12CC2` [Compound 168, 4-Bromo-5-(3-chloro-5-fluoro-phenoxy)-1,1-dioxo-spiro[benzothiophene-2,1′-cyclopropane]-3-one], the IC50 turned out to be 6.3 µM. Same read-out and setting: under `N#Cc1c(Oc2cc(F)cc(Cl)c2)ccc2c1[C@H](O)CS2(=O)=O` [Compound 171, (3S)-5-(3-Chloro-5-fluoro-phenoxy)-3-hydroxy-1,1-dioxo-2,3-dihydrobenzothiophene-4-carbonitrile] stands 12.9 µM. `CC1(C)C(O)c2c(ccc(Oc3cc(F)cc(Cl)c3)c2C#N)S1(=O)=O` (centres unmarked) [Compound 172, 5-(3-Chloro-5-fluoro-phenoxy)-3-hydroxy-2,2-dimethyl-1,1-dioxo-3H-benzothiophene-4-carbonitrile]: the IC50 stood at 19.6 µM. For `N#Cc1cc(F)cc(Oc2ccc3c(c2C#CCF)C(O)C(F)(F)S3(=O)=O)c1` (centres unmarked) [Compound 174, 3-[[2,2-Difluoro-4-(3-fluoroprop-1-ynyl)-3-hydroxy-1,1-dioxo-3H-benzothiophen-5-yl]oxy]-5-fluoro-benzonitrile], the IC50 was 10.9 µM. Take `O=S1(=O)C[C@H](O)c2c1ccc(Oc1cc(F)cc(F)c1)c2Br` [Compound 177, (R)-4-bromo-5-(3,5-difluorophenoxy)-3-hydroxy-2,3-dihydrobenzo[b]thiophene 1,1-dioxide]: the IC50 amounted to 4.66 µM. Regarding `N#Cc1cc(F)cc(Oc2ccc3c(c2Br)[C@@H](O)CS3(=O)=O)c1` [Compound 179, (R)-3-((4-Bromo-3-hydroxy-1,1-dioxido-2,3-dihydrobenzo[b]thiophen-5-yl)oxy)-5-fluorobenzonitrile], the IC50 was found to be 13.4 µM. The same measure, in the same setting: under `O=C1CS(=O)(=O)c2ccc(Oc3cc(F)cc(F)c3)cc21` [Compound 181, 5-(3,5-Difluorophenoxy)benzo[b]thiophen-3(2H)-one 1,1-dioxide] stands 17.6 µM. Still for that read-out and setting: under `O=S1(=O)CC(O)c2c1ccc(Oc1cc(F)cc(F)c1)c2Br` (centres unmarked) [Compound 182, 4-Bromo-5-(3,5-difluorophenoxy)-3-hydroxy-2,3-dihydrobenzo[b]thiophene 1,1-dioxide] stands 17.1 µM; under `O=S1(=O)C[C@H](O)c2c1ccc(Oc1cccc(F)c1)c2Br` [Compound 183, (R)-4-bromo-5-(3-fluorophenoxy)-3-hydroxy-2,3-dihydrobenzo[b]thiophene 1,1-dioxide], 13.7 µM. In the case of `N#Cc1cncc(Oc2ccc3c(c2Br)[C@@H](O)CS3(=O)=O)c1` [Compound 184, (R)-5-((4-bromo-3-hydroxy-1,1-dioxido-2,3-dihydrobenzo[b]thiophen-5-yl)oxy)nicotinonitrile], the IC50 was found to be 10.2 µM. For the compound `CC1(O)c2cc(Oc3cc(F)cc(F)c3)ccc2S(=O)(=O)C1(F)F` (centres unmarked) [Compound 189, 5-(3,5-Difluorophenoxy)-2,2-difluoro-3-hydroxy-3-methyl-2,3-dihydrobenzo[b]thiophene 1,1-dioxide], the IC50 came out at 6.86 µM.

The assay is the same for the next values; noted with them: SPA IC50, 150 nM Compound 211 probe, 100 nM HIF-2α HIS TAG-PASB Domain.
Consider `O=S1(=O)c2ccc(Oc3cc(F)cc(Cl)c3)cc2C(O)C1(F)F` (centres unmarked) [Compound 126, 5-(3-Chloro-5-fluorophenoxy)-2,2-difluoro-3-hydroxy-2,3-dihydrobenzo[b]thiophene 1,1-dioxide], for which the IC50 worked out at 1.88 µM. As to `O=S1(=O)CCC(O)c2c1ccc(Oc1cc(F)cc(F)c1)c2C(F)F` (centres unmarked) [Compound 166, 5-(Difluoromethyl)-6-(3,5-difluorophenoxy)-4-hydroxythiochromane 1,1-dioxide], half-maximal inhibition (IC50) was put at 4.1 µM. Regarding `CC1(C)C(O)c2c(ccc(Oc3cc(F)cc(Cl)c3)c2Br)S1(=O)=O` (centres unmarked) [Compound 170, 4-Bromo-5-(3-chloro-5-fluoro-phenoxy)-2,2-dimethyl-1,1-dioxo-3H-benzothiophen-3-ol], 21.9 µM corresponded to half-maximal inhibition (IC50).
